Here are results for 1 compound from PMC9738107, “Targeting of the ELR+CXCL/CXCR1/2 Pathway Is a Relevant Strategy for the Treatment of Paediatric Medulloblastomas” (Cells, 2022).

Experiment [1] concerns HR1 cells. As to the kind of experiment: Clonogenic assay. Format: cell-based, human. The protocol: Figure 8 C29 is efficient on radioresistant MB cell lines. (A) Cell death after 48 h of treatment with control (DMSO, CT) or C29 1, 2.5, or 5 µM on radiation-resistant cells (RR) and normal cells (N), n = 3. Statistics were performed using the one-way method ANOVA. * p < 0.05, ** p < 0.01, *** p < 0.001. For this figure, DR1 = D1, DR2 = D2, HR1 = H1, HR2 = H2, and C8D1A = C8. (B) Proliferation of DR1/DR2 (A) and HR1/HR2 (B) radio-resistant cells after 1 µM C29 treatment or control (DMSO), n = 3. (C) Clonogenic assay on DR1, DR2 (n = 3) and HR1, HR2 (n = 3) cells after treatment with control (DMSO) or C29 (1 µM or 2.5 µM). (D) Cell migration through the Boyden chamber of DR1 and DR2 cells specifically attracted by 200 ng/mL CXCL8. Cells were treated with control (DMSO) or C29 (1 and 2.5 µM). Results are expressed as percentage of control (n = 3). Scale = 1000 μm. Statistics were performed using Student t-test for 2 comparisons only or ANOVA test for multiple comparisons. * p < 0.05, ** p < 0.01, *** p < 0.001. […]
each month by using PlasmoTest Kit (#10L07‐MM, InvivoGen, Toulouse, France). […]
150 Daoy/DR1/DR2/ ONS ‐ 76 and 300 HD ‐ MB03/HR1/HR2 cells were seeded in trip‐ licate in 6‐well plates in the presence or absence of treatment (1 or 2∙5μM MCK140 or DMSO as control). […] The number of clones was quantified using ImageJ software. […]

Experiment [2] has as its system Daoy, ONS-76, HD-MB03, and D341Med wild-type cells. In words: Cell proliferation assay (cell counting). Format: cell-based, human. The settings on record: 1 µM C29, pre-incubation prior to cell seeding, all tested cell lines. The procedure:
To confirm the efficacy of C29 on various parameters of cancer cell aggressiveness, we first performed cell proliferation assays at longer time points.
Figure 4 C29 reduces proliferation, migration, and invasion of naïve MB cells. (A) Proliferation of Daoy, ONS-76, HD-MB03, and D341Med wild-type cells after treatment with 1 μM C29 or the control (DMSO), n = 3. (B) Clonogenic assay on Daoy (n = 4), ONS-76 (n = 3) and HD -MB03 (n = 5) cells after treatment with control (DMSO) or C29 (1 μM or 2.5 μM). Scale = 500 μm. (C) Cell migration through the Boyden chamber of Daoy and ONS-76 cells specifically attracted by 200 ng/mL CXCL8. Results are expressed as percentage of control (DMSO) (n = 3). […] Results are expressed as percentage of day 0, n = 4. […]
1500 Daoy, ONS ‐76, HD ‐MB03 or D341 Med cells were sown in triplicate in plates with six wells and the cells were counted daily for 8 days using a Coulter counter (Ville‐ pinte). The relative number of cells (compared to day 1) was determined daily. […]
Y = Y0 * exp(k * X) (Y= Cell number at day X; Y0= Cell number at day 0 (graphically calculated); X= Day following cell plating (cells plated at X0=0); k= Exponential growth constant rate. Doubling times were compared. […]
were seeded in 6‐well plates. […] Cell death was detected by PE chan‐ nel using FACS Cytoflex (Beckman) immediately after labelling the cells with 1ug/ml pro‐ pidium iodide (Miltenyi Biotec). […]

Consider `O=C(Nc1cccc(Cl)c1)Nc1nc2ccc([N+](=O)[O-])cc2s1` [C29, 1-(3-chlorophenyl)-3-(6-nitrobenzo[d]thiazol-2-yl) urea], for which the Clone formation entry in experiment [1] (HR1, 1 µM) is “reduced the number of clones”; in experiment [1] (HR1, 2.5 µM), “extinguished them”. Also, the Proliferation result in experiment [2] is on record as “completely inhibited proliferation”.
